One test concerns the target T1, TLR3 (Homo sapiens, UniProt O15455).
T1 construct: expressed in transfected cells; host or cells: HEK293 (transient Nucleofection, Amaxa)
T1 sequence (O15455 24-904): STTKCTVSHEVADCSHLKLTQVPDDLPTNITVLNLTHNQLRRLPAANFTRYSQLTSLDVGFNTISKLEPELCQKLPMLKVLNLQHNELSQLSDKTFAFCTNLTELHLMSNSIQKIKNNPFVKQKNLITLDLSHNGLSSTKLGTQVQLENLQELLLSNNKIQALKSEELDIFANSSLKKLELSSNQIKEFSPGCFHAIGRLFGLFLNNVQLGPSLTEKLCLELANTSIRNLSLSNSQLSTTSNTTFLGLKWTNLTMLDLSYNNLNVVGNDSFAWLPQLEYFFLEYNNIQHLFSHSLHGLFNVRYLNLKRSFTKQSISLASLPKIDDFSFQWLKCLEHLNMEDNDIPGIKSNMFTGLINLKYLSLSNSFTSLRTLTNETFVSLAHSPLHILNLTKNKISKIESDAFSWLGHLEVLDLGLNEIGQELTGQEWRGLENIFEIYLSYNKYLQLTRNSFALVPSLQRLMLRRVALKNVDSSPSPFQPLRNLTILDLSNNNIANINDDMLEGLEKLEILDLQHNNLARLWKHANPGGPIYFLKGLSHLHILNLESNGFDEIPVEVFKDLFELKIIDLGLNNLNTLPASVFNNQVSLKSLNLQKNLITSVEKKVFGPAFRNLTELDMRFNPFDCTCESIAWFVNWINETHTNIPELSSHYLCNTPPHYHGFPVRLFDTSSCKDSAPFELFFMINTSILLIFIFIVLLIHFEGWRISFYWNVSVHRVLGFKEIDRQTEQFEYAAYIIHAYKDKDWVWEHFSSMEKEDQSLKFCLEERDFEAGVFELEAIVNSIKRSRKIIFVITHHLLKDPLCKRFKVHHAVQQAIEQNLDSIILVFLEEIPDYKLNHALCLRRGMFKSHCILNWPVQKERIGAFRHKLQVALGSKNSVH
The test can be described thus: TLR3-transfected HEK293 cells, NF-kB luciferase reporter. Format: cell-based. Conditions: Poly I:C 50 μg/ml; data not shown. The procedure:
(§1) HEK293 cells are detached by trypsin from the plastic surface of the culture bottle, extensively washed with calcium and magnesium-free PBS, counted and adjusted at the concentration 1×10^6 cells/tube in polypropylene V-bottomed tubes. After the final wash, the cells are pelleted and 100 μl transfection buffer (Amaxa) is added together with […], TLR7, TLR8 or TLR9-encoding and ELAM-1 promoter NF-kB luciferase reporter plasmids. The mixture thus obtained is transferred in special cuvettes and transient transfection is obtained in a special apparatus which is able to directly introduce genetic material into the nucleus (Nucleofection®, Amaxa GmbH). The cells are then recovered and cultured at 1×10^5/ml in 48-flat bottomed plates in E-MEM medium plus 5% foetal calf serum for 18 hrs. […] Finally the luciferase activity is measured in the cellular lysates by a commercial kit (Promega).
For orientation: Reporter assays use an easily measured gene product as a stand-in for the process of interest.

A further test concerns purified B cells. As to the kind of experiment: B cell activation (tritiated thymidine incorporation). The class given is cell-based, human. The procedure:
Circulating mononuclear cells (MNC) are isolated by Ficoll-Hypaque density gradient from buffy coats of healthy donors (Servizio Immunotrasfusionale e terapie cellulari, Azienda Ospedaliero Universitaria Pediatrica A. Meyer, Firenze). 200×10^6 MNC are then separated using the commercial CD19 isolation kit (Miltenyi) by the addition of 400 μl iron microbead-bound anti-CD19 monoclonal antibody followed by magnetic separation on LS column. 20×10^6 B cells are isolated by positive selection and are extensively washed by the use of calcium- and magnesium-free PBS and cultured in triplicates at the concentration of 1×10^6/ml/well in complete medium plus 10% foetal calf serum in 96-U plates. […] Plates are incubated in humidified atmosphere at 37° C. for 72 hrs and at the end 0.5 μCi tritiated thymidine is added to each well for further 16 hrs. The incorporated radioactivity is measured as already described in step (f) of Example 4.
A general note: Uptake of a labelled nucleoside into DNA is a usual measure of proliferation.

The next test concerns the target T2, TLR9 (Homo sapiens, UniProt Q9NR96).
T2 construct: expressed in transfected cells; host or cells: HEK293 (transient Nucleofection, Amaxa)
T2 sequence (Q9NR96 26-1032): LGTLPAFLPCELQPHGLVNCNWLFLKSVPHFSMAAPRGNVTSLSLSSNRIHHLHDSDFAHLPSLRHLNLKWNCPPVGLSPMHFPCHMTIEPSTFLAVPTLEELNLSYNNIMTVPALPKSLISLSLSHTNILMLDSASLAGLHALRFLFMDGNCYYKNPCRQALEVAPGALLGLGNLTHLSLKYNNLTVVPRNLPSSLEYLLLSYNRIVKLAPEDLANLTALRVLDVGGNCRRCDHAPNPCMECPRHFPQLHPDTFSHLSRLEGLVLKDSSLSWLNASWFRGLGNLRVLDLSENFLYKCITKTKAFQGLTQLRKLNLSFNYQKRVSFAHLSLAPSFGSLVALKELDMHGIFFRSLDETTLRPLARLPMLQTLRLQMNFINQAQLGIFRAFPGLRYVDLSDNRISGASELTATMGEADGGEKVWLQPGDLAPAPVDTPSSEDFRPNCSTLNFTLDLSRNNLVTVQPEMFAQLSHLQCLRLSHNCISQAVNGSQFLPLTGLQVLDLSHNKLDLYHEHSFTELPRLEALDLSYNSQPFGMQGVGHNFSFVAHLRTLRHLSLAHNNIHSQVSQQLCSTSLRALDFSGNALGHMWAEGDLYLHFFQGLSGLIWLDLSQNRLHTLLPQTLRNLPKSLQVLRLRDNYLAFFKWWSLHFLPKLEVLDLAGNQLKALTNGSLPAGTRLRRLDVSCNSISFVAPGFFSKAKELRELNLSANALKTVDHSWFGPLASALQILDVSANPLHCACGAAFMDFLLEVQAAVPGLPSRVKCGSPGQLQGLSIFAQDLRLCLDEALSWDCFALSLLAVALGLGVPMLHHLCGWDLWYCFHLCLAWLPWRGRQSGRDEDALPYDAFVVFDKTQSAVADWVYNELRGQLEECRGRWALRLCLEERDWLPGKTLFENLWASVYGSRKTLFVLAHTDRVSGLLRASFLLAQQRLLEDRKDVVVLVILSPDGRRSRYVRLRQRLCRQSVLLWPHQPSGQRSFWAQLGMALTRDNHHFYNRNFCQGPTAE
The test can be described thus: TLR9-transfected HEK293 cells, NF-kB luciferase reporter. Format: cell-based. Conditions: CpG-ODN 2006 1.3 μM; data not shown. How it is done:
as §1

A further test deals with purified CD14+ cells. As to the kind of experiment: Cytokine production by purified CD14+ cells (ELISA of supernatants, 36 hrs). Format: cell-based, human. The procedure: Circulating mononuclear cells (MNC) are isolated by density gradient (Ficoll-Hypaque) using buffy coats from 14 normal donors (Servizio Immunotrasfusionale e terapie cellulari, Azienda Ospedaliera Universitaria A. Meyer, Firenze). 200×10^6 MNC are separated by the use of a commercial kit (CD14 isolation kit, Miltenyi) by the addition of 400 μl anti-CD14 monoclonal antibody bound to iron beads followed by isolation on magnetic columns (LS column). 50×10^6 monocytes are recovered by positive selection and are extensively washed with calcium and magnesium-free sterile PBS and then seeded in complete medium plus 10% foetal calf serum in 24 flat bottomed plates at the concentration of 1×10^6/ml. […] The plates are incubated for 36 hrs at 37° C. in 5% CO2 humidified atmosphere and the supernatants are collected after centrifugation at 1200 rpm, aliquoted and then stored at −20° C. up to the assay. […]
For the determination of cytokines and chemokines of the innate immunity, commercial ELISAs have been used: IL-12p40 (Cytoscreen, Biosource Int, Camarillo, Calif.), IFN-alfa (Cytoscreen), TNF-alfa (Cytoscreen), IL-10 (Pharmingen), IL-6 and CXCL10 (R&D System). 100 μl/well of single supernatants are incubated in flat bottomed plates as specified by the productors and the amounts of the single cytokines are expressed as pg/ml on the basis of a reference curve by using recombinant cytokines.
(In general: ELISA stands for enzyme-linked immunosorbent assay.)

The test system of the next test is BALB/C and C57BL/6 mice. As to the kind of experiment: Modification of antibody response in sensitized mice (serum IgE). Conditions: mice sensitized i.p. with 10 μg in alum. Format: in vivo. How it is done: Ten BALB/C and ten C57BL/6 6-8 wk-old female mice (Charles River) have been intraperitoneally sensitized at day 0 and d 7 with 10 μg OVA (5 animals per strain) or OVA-conj (5 animals per strain) in the presence of alum. At d 14 and d 18 animals are stimulated intratracheally with 10 μg OVA and after 24 hrs unspecific bronchial hyperreactivity is measured administering first an aerosolized PBS solution to obtain the standard value and then an aerosolized solution containing increasing concentrations of methacolin for 3 min (6.25-12.5-25-50 mg/ml). The pletismograph in which the animal is inserted is able to monitor the values of airflow resistance.
Serum levels of total and OVA-specific IgE have been determined at d 14 and d 18 (before the intratracheal allergic stimulation) in sensitized animals by the use of commercial kits.

The mark [1] stands for this setting: Table A, Donor #1, LPS, dose not printed in table (100 ng/ml elsewhere in the source).
[2] abbreviates: Table A, Donor #2, LPS, dose not printed in table (100 ng/ml elsewhere in the source).
[3] abbreviates: Table E, Donor #1, dose 0.1 μg/ml.
Where [4] appears, read: Table E, Donor #2, dose 0.1 μg/ml.

As for Poly I:C, the “NF-κB expression in TLR3-expressing HEK293 cells” value at TLR3 was “activates TLR3-expressing cells”.
For the molecule CpG-ODN 2006 [reference compound], the “Stimulation index (mean ± SE)” value in the test on purified B cells (B cell proliferation, concentration 10 μg/ml) stood at 90.3 ± 7.5. Further, the “proliferation of purified B lymphocytes (in words)” value with purified B cells (thymidine incorporation) is “high levels of incorporation of radioactive thymidine”. Also, on TLR9, the “NF-κB expression in TLR9-transfected HEK293 cells” value was “able to induce NF-κB expression”.
In the test with purified CD14+ cells (setting [1]), “lipopolysaccharide [LPS, reference compound]” registered an IL-6 production of 12905 pg/mL, an IL-10 production of 8140 pg/mL, an IL-12p40 production of 2725 pg/mL and a TNF-alfa production of 5331 pg/mL. In the test on purified CD14+ cells (setting [2]), this molecule showed an IL-6 production of 3125 pg/mL, an IL-10 production of 1155 pg/mL, an IL-12p40 production of 6311 pg/mL and a TNF-alfa production of 4619 pg/mL. In addition, in the test on purified CD14+ cells (Table B, dose 1 μg/ml), the “IL-6 production (mean ± SE)” value amounted to 17.5 ± 4.9 ng/mL, the “IL-10 production (mean ± SE)” value worked out at 7.9 ± 1.9 ng/mL, the “IL-12p40 production (mean ± SE)” value was 3.8 ± 1.7 ng/mL and the “TNF-alfa production (mean ± SE)” value is 7.6 ± 2.7 ng/mL. In the test on purified CD14+ cells (setting [3]), this molecule returned an IL-6 production of 27235 pg/mL, an IL-10 production of 530 pg/mL, an IL-12p40 production of 5627 pg/mL and a TNF-alfa production of 3136 pg/mL. Besides, in the test with purified CD14+ cells (setting [4]), the IL-6 production came out at 39499 pg/mL, the IL-10 production was determined as 3000 pg/mL, the IL-12p40 production was 10522 pg/mL and the TNF-alfa production is 14061 pg/mL. The “cytokine production from purified CD14+ cells (in words)” value in the test with purified CD14+ cells (text to Tables A and B) is “relevant amounts of modulatory (IL-12) and inflammatory (TNF-alfa and IL-6) cytokines”.

B1: ovalbumin (protein, UniProt P01012 2-386, looked up)
Ovalbumin: GSIGAASMEFCFDVFKELKVHHANENIFYCPIAIMSALAMVYLGAKDSTRTQINKVVRFDKLPGFGDSIEAQCGTSVNVHSSLRDILNQITKPNDVYSFSLASRLYAEERYPILPEYLQCVKELYRGGLEPINFQTAADQARELINSWVESQTNGIIRNVLQPSSVDSQTAMVLVNAIVFKGLWEKAFKDEDTQAMPFRVTEQESKPVQMMYQIGLFRVASMASEKMKILELPFASGTMSMLVLLPDEVSGLEQLESIINFEKLTEWTSSNVMEERKIKVYLPRMKMEEKYNLTSVLMAMGITDVFSSSANLSGISSAESLKISQAVHAAHAEINEAGREVVGSAEAGVDAASVSEEFRADHPFLFCIKHIATNAVLFFGRCVSP
notes: ovalbumin (OVA grade V)
As to B1, the “Total IgE (mean ± SE)” value was 966 ± 268 pg/mL in the test on BALB/C and C57BL/6 mice (d14 pre-challenge); 680 ± 234 pg/mL in the test on BALB/C and C57BL/6 mice (d18 post-challenge).

Values taken from patent US8822407B2, “Preparation of conjugates comprising adenine derivatives and allergenic proteins and their use for specific immunotherapy of allengenic diseases” (Universita' Degli Studi di Firenze, priority 2010, dated 2014).
